Test [1] addresses T1, Beta-secretase 1 (Homo sapiens, UniProt P56817).
Description: Inhibition of memapsin 2 expressed in CHO cells
Test [2] deals with T1, Beta-secretase 1. The source holds these as a separate data set.
Description: Binding affinity to recombinant memapsin 2

T1 sequence (P56817 whole entry): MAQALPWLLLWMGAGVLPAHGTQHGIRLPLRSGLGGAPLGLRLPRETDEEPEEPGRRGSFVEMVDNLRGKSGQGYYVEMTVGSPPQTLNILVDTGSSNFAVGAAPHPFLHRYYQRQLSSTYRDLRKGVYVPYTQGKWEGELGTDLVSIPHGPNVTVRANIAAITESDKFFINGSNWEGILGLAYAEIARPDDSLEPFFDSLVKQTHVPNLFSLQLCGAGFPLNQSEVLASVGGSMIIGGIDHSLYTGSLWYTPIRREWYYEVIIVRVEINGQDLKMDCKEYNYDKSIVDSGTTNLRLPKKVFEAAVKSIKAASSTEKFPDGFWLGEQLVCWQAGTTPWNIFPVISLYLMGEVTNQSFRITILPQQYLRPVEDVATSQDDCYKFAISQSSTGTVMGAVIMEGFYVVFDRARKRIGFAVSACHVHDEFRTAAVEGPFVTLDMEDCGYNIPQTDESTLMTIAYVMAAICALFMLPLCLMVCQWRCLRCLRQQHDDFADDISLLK

In the case of `CC(C)NC[C@@H](O)[C@H](Cc1ccccc1)NC(=O)c1cc(C(=O)N[C@H](C)c2ccccc2)cc(N(C)S(C)(=O)=O)c1`, the IC50 against Beta-secretase 1 [1] was determined as 1.1 µM. For the same molecule, at Beta-secretase 1 [2], the affinity, expressed as Ki, was 0.425 µM.

On Beta-secretase 1 [2], `COc1cccc(CNC[C@@H](O)[C@H](CC(C)C)NC(=O)c2cc(C(=O)N[C@H](C)c3ccccc3)cc(N(C)S(C)(=O)=O)c2)c1` gave a Ki of 0.916 µM.

In turn, `COc1cccc(CNC[C@@H](O)[C@H](Cc2ccccc2)NC(=O)c2cc(C(=O)NCc3nc(C)oc3C)cc(N(C)S(C)(=O)=O)c2)c1` had an inhibitory constant (Ki) at Beta-secretase 1 [2] of 0.552 µM.

For `C[C@@H](NC(=O)c1cc(C(=O)N[C@@H](Cc2ccccc2)[C@H](O)CNCc2ccc3ccn(S(C)(=O)=O)c3c2)cc(N(C)S(C)(=O)=O)c1)c1ccccc1`, the IC50 at Beta-secretase 1 [1] turned out to be 0.2 µM. This molecule also showed a Ki on Beta-secretase 1 [2] of 0.027 µM.

On Beta-secretase 1 [2], `COc1cccc(CNC[C@@H](O)[C@H](Cc2ccccc2)NC(=O)[C@H](CS(C)(=O)=O)NC(=O)OCc2nc(C)oc2C)c1` showed a Ki of 15 µM. This lies in the double-digit micromolar range.

On Beta-secretase 1 [2], `COc1cccc(CNC[C@@H](O)[C@H](Cc2ccccc2)NC(=O)c2cc(C(=O)NC(C)c3nc(C)oc3C)cc(N(C)S(C)(=O)=O)c2)c1` (some centres not stated) had a Ki of 0.894 µM.

In turn, `C[C@@H](NC(=O)c1cc(C(=O)N[C@@H](Cc2ccccc2)[C@H](O)CNCc2ccc3cc[nH]c3c2)cc(N(C)S(C)(=O)=O)c1)c1ccccc1` registered an IC50 at Beta-secretase 1 [1] of 0.62 µM. The molecule further showed a Ki at Beta-secretase 1 [2] of 0.23 µM.

The molecule `Cc1nc(COC(=O)N[C@@H](CS(C)(=O)=O)C(=O)N[C@@H](CC(C)C)[C@@H](O)C[C@@H](C)C(=O)N[C@H](C(=O)NC(C)(C)C)C(C)C)c(C)o1` yielded a Ki at Beta-secretase 1 [2] of 0.00012 µM.

On to `CC(C)NC(=O)[C@@H](NC[C@@H](O)[C@H](Cc1ccccc1)NC(=O)c1cc(C(=O)N[C@H](C)c2ccccc2)cc(N(C)S(C)(=O)=O)c1)C(C)C`, for which, on Beta-secretase 1 [2], the affinity, expressed as Ki, was 0.564 µM. This Ki is about 4700-fold higher than that of the molecule before.
